Drawing on ChEMBL document CHEMBL5034015, “Structure-Based Optimization of 3-Phenyl-N-(2-(3-phenylureido)ethyl)thiophene-2-sulfonamide Derivatives as Selective Mcl-1 Inhibitors” (J Med Chem, 2021), this text covers Ki, IC50 and Activity for 22 compounds.

The target of assay [1] is T1, Induced myeloid leukemia cell differentiation protein Mcl-1 (Homo sapiens, UniProt Q07820). As to the kind of experiment: Binding affinity to full length human MCL1 expressed in Escherichia coli BL21 (DE3) assessed as inhibition constant preincubated for 30 mins followed by 5-FAM-QEDIIIINIARHLAQVGDSMD-RSIPPG tracer addition and measured after 20 mins by fluorescence polarization assay. For orientation: In fluorescence polarisation assays a small probe gives low polarisation when free and higher when bound to something large.

The subject of the next assay is HL-60. The experiment in a line: cells. Conditions: Homo sapiens, HL-60, 48 h.
The target in assay [2] is Apoptosis regulator Bcl-2 (Homo sapiens, UniProt P10415). As to the kind of experiment: Binding affinity to full length human Bcl-2 expressed in Escherichia coli BL21 (DE3) at up to 100 uM preincubated for 30 mins followed by 5-FAM-QEDIIIINIARHLAQVGDSMD-RSIPPG tracer addition and measured after 20 mins by fluorescence polarization assay. Conditions: dose microM <=100, time 50.0 min.

A further assay deals with RS4-11. The experiment in a line: cells. The following applies: Homo sapiens, RS4-11, 48 h.
The target in a further assay is Bcl-2-like protein 1 (Homo sapiens, UniProt Q07817). The experiment in a line: Binding affinity to full length human Bcl-xl expressed in Escherichia coli BL21 (DE3) at up to 100 uM preincubated for 30 mins followed by 5-FAM-QEDIIIINIARHLAQVGDSMD-RSIPPG tracer addition and measured after 20 mins by fluorescence polarization assay. The following applies: dose microM <=100, time 50.0 min.

The test system of the next assay is HEK-293T. As to the kind of experiment: Cytotoxicity against HEK293T cells assessed as reduction in cell viability incubated for 48 hrs by CCK8 assay. Conditions: Homo sapiens. A general note: Formazan colour is commonly taken as a measure of viable cells.
The next assay has as its system HeLa. The experiment in a line: cells. Conditions: Homo sapiens, 48 h.
For assay [3], the target named is T1, Induced myeloid leukemia cell differentiation protein Mcl-1. The experiment in a line: Binding affinity to full length human MCL1 expressed in Escherichia coli BL21 (DE3) at up to 100 uM preincubated for 30 mins followed by 5-FAM-QEDIIIINIARHLAQVGDSMD-RSIPPG tracer addition and measured after 20 mins by fluorescence polarization assay. The following applies: dose microM <=100, time 50.0 min.

What is called pKi is the negative decadic logarithm of the Ki, by convention in mol/L. Usually pIC50 stands for the IC50 on a negative log10 scale, so that one unit is a factor of ten.

pIC50, pKi: −log10 of the molar value. Calls of active or inactive are those of the source.

T1 sequence (Q07820 whole entry): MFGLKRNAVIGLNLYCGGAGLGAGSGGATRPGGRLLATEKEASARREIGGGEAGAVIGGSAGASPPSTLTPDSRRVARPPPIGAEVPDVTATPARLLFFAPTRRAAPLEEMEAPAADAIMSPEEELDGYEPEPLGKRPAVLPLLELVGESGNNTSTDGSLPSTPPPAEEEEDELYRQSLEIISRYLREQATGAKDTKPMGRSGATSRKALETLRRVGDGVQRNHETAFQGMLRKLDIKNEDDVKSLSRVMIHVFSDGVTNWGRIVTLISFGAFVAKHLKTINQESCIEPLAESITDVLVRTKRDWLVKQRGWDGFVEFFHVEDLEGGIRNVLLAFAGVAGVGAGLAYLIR
Sequence of Apoptosis regulator Bcl-2 (P10415 whole entry): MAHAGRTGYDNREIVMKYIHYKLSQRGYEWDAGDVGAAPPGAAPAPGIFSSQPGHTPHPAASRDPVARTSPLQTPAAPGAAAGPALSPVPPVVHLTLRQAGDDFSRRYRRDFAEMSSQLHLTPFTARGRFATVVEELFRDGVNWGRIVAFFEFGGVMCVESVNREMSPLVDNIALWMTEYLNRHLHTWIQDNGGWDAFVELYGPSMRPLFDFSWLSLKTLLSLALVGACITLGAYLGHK
Sequence of Bcl-2-like protein 1 (Q07817 whole entry): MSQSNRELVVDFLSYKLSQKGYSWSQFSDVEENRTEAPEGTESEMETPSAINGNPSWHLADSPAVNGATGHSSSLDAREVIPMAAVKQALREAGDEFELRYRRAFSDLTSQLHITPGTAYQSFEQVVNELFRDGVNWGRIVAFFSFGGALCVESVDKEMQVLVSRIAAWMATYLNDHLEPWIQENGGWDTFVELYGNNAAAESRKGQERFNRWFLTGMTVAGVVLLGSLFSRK
Description for HL-60: Cytotoxicity against human HL-60 cells assessed as inhibition of cell growth incubated for 48 hrs by CCK8 assay
Description for HeLa: Cytotoxicity against human HeLa cells assessed as inhibition of cell growth incubated for 48 hrs by CCK8 assay
Description for RS4-11: Cytotoxicity against human RS4-11 cells assessed as inhibition of cell growth incubated for 48 hrs by CCK8 assay

Take `CC(C)c1ccc(Oc2ccc(O)c(O)c2)c(-c2ccsc2S(=O)(=O)NCCNC(=O)Nc2cc(Cl)cc(Cl)c2)c1`: the negative-log Ki (pKi) in assay [1] is 6.44. In addition, the pIC50 was 5.19 with HL-60, 5.19 in the assay with RS4-11, < 5.00 in the assay on HEK-293T and < 4.30 in the assay on HeLa. In addition, the outcome (in assay [2]; on Bcl-2-like protein 1) was inactive.
Take `COc1cccc(NC(=S)NCCNS(=O)(=O)c2sccc2-c2ccc(C)cc2Oc2ccc(O)c(O)c2)c1`: the pKi in assay [1] was 5.22. In addition, the pIC50 in the assay on HL-60 is < 4.30; in the assay on RS4-11, < 4.70; in the assay with HEK-293T, < 4.30; in the assay with HeLa it was < 4.30. Further, the outcome (in assay [2]; at Bcl-2-like protein 1) was inactive.
Regarding `O=C(NCCNS(=O)(=O)c1ccc(-c2ccccc2Oc2ccc([N+](=O)[O-])c([N+](=O)[O-])c2)s1)Nc1ccc(Cl)cc1`, the pKi in assay [1] was 5.23. Further, the negative-log IC50 (pIC50) in the assay on HL-60 was 5.09; with RS4-11 it was 5.17; in the assay on HEK-293T, < 4.70; with HeLa, < 4.70. Moreover, the result (in assay [2]; at Bcl-2-like protein 1) was inactive.
With `Cc1ccc(-c2ccsc2S(=O)(=O)NCCNC(=S)Nc2cc(C(F)(F)F)cc(C(F)(F)F)c2)c(Oc2ccc(O)c(O)c2)c1`, the pKi in assay [1] was 6.14. For the same compound, the negative-log IC50 (pIC50) in the assay on HL-60 is 5.49; with RS4-11, 5.32; in the assay on HEK-293T, 5.10; in the assay on HeLa, 5.10. Further, the result (in assay [2]; at Bcl-2-like protein 1) was inactive.
On to `O=S(=O)(NCCNC(=S)Nc1ccc(Cl)cc1)c1ccc(-c2ccccc2OCc2ccccc2)s1`, for which the negative-log Ki (pKi) in assay [1] is 5.37. For the same compound, the negative logarithm of the IC50 (pIC50) in the assay with HL-60 is < 4.30; in the assay with RS4-11, < 4.30; with HEK-293T, 4.92; in the assay on HeLa, 5.15. The outcome (in assay [2]; at Bcl-2-like protein 1) was inactive.
On to `COc1ccc(Oc2ccc(C(C)C)cc2-c2ccsc2S(=O)(=O)NCCNC(=S)Nc2cc(C(F)(F)F)cc(C(F)(F)F)c2)cc1OC`, for which the pKi in assay [1] was 4.92. For the same compound, the negative logarithm of the IC50 (pIC50) in the assay on HL-60 is 5.16; in the assay on RS4-11, 5.26; in the assay on HEK-293T it was 4.99; in the assay on HeLa, 5.08. Further, the result (in assay [2]; at Bcl-2-like protein 1) was inactive.
On to `Cc1ccc(-c2ccsc2S(=O)(=O)NCCNC(=S)Nc2ccc([N+](=O)[O-])cc2)c(Oc2ccc(O)c(O)c2)c1`, for which the pKi in assay [1] was 5.82. Moreover, the pIC50 in the assay with HL-60 is 5.54; in the assay with RS4-11, 5.29; in the assay on HEK-293T it was 5.09; in the assay on HeLa, 5.17. In addition, the outcome (in assay [2]; on Bcl-2-like protein 1) was inactive.
With `O=[N+]([O-])c1cccc(NC(=S)NCCNS(=O)(=O)c2ccc(-c3ccccc3OCc3cccc(O)c3)s2)c1`, the negative-log IC50 (pIC50) in the assay on HL-60 is 4.94; in the assay with RS4-11, 5.01; in the assay with HEK-293T, 4.86; with HeLa, 4.95. In addition, the outcome (in assay [3]; in assay [2]; on Bcl-2-like protein 1) was inactive.
On to `O=C(NCCNS(=O)(=O)c1ccc(-c2ccccc2O[C@H]2CC[C@H](O)CC2)s1)Nc1ccc([N+](=O)[O-])cc1`, for which the negative-log IC50 (pIC50) with HL-60 was 5.05; with RS4-11 it was 5.39; in the assay with HEK-293T, 5.05; in the assay on HeLa, 4.98. In addition, the outcome (in assay [3]; in assay [2]; at Bcl-2-like protein 1) was inactive.
Take `Cc1cc(C)cc(NC(=O)NCCNS(=O)(=O)c2ccc(-c3ccccc3OCc3ccccc3)s2)c1`: the negative-log IC50 (pIC50) in the assay on HL-60 is 5.66; with RS4-11 it was < 4.30; in the assay on HEK-293T it was < 4.70; with HeLa, < 4.30. For the same compound, the outcome (in assay [3]; in assay [2]; on Bcl-2-like protein 1) was inactive.
With `O=C(NCCNS(=O)(=O)c1ccc(-c2ccccc2O[C@H]2CC[C@@H](O)CC2)s1)Nc1cc(C(F)(F)F)cc(C(F)(F)F)c1`, the negative-log IC50 (pIC50) is 5.51 in the assay with HL-60, 5.03 in the assay on RS4-11, 4.85 in the assay on HEK-293T and 4.85 in the assay with HeLa. The result (in assay [3]; in assay [2]; at Bcl-2-like protein 1) was inactive.
For the compound `Cc1cc(C)cc(NC(=O)NCCNS(=O)(=O)c2ccc(-c3ccccc3Oc3ccc(N)cc3)s2)c1`, the negative-log Ki (pKi) in assay [1] was 5.80. The negative logarithm of the IC50 (pIC50) in the assay with HL-60 is < 4.30; in the assay on RS4-11 it was < 4.70; with HEK-293T, < 4.70; in the assay with HeLa it was < 4.70. In addition, the outcome (in assay [2]; on Bcl-2-like protein 1) was inactive.
For the compound `COc1ccc(NC(=O)NCCNS(=O)(=O)c2ccc(-c3ccccc3Oc3ccc([N+](=O)[O-])c([N+](=O)[O-])c3)s2)cc1`, the pIC50 is 5.27 with HL-60, 5.85 in the assay on RS4-11, 4.73 in the assay on HEK-293T and < 4.70 in the assay with HeLa. In addition, the outcome (in assay [3]; in assay [2]; at Bcl-2-like protein 1) was inactive.
On to `CC(C)c1ccc(Oc2ccc(O)c(O)c2)c(-c2ccsc2S(=O)(=O)NCCNC(=S)Nc2ccc([N+](=O)[O-])cc2)c1`, for which the negative-log IC50 (pIC50) is 5.06 in the assay on HL-60, 5.29 in the assay on RS4-11, 4.79 in the assay on HEK-293T and < 4.70 in the assay on HeLa. The outcome (in assay [3]; in assay [2]; at Bcl-2-like protein 1) was inactive.
As for `O=S(=O)(NCCNC(=S)Nc1cc(C(F)(F)F)cc(C(F)(F)F)c1)c1ccc(-c2ccccc2OCc2cccc(O)c2)s1`, the pIC50 was < 4.30 with HL-60, 4.92 in the assay with RS4-11, < 4.70 in the assay with HEK-293T and 4.83 in the assay on HeLa. Further, the outcome (in assay [3]; in assay [2]; on Bcl-2-like protein 1) was inactive.
In the case of `O=[N+]([O-])c1ccc(NC(=S)NCCNS(=O)(=O)c2ccc(-c3ccccc3O[C@H]3CC[C@H](O)CC3)s2)cc1`, the pIC50 in the assay on HL-60 was 4.94; with RS4-11, 5.82; in the assay with HEK-293T, 4.98; with HeLa, 5.27. In addition, the result (in assay [3]; in assay [2]; on Bcl-2-like protein 1) was inactive.
In the case of `COc1ccc(NC(=O)NCCNS(=O)(=O)c2ccc(-c3ccccc3Oc3ccc([N+](=O)[O-])cc3)s2)cc1`, the negative logarithm of the Ki (pKi) in assay [1] is 5.34. The pIC50 was < 4.30 in the assay with HL-60, < 4.30 in the assay with RS4-11, < 4.70 in the assay on HEK-293T and < 4.70 in the assay with HeLa. For the same compound, the result (in assay [2]; on Bcl-2-like protein 1) was inactive.
With `COc1cccc(NC(=O)NCCNS(=O)(=O)c2ccc(-c3ccccc3OCc3ccccc3)s2)c1`, the pKi in assay [1] is 4.96. Moreover, the pIC50 in the assay on HL-60 is 5.77; in the assay with RS4-11, < 4.70; with HEK-293T it was < 4.70; with HeLa, < 4.30. Moreover, the outcome (in assay [2]; on Bcl-2-like protein 1) was inactive.
Consider `COc1cccc(NC(=S)NCCNS(=O)(=O)c2ccc(-c3ccccc3Oc3ccc([N+](=O)[O-])cc3)s2)c1`, for which the pKi in assay [1] is 4.89. Further, the negative logarithm of the IC50 (pIC50) in the assay on HL-60 is < 4.30; in the assay with RS4-11 it was < 4.30; in the assay on HEK-293T it was < 4.70; in the assay with HeLa, < 4.30. The result (in assay [2]; at Bcl-2-like protein 1) was inactive.
For the compound `O=C(NCCNS(=O)(=O)c1ccc(-c2ccccc2O[C@H]2CC[C@@H](O)CC2)s1)Nc1ccc([N+](=O)[O-])cc1`, the negative-log IC50 (pIC50) was < 4.70 with HL-60, 4.91 in the assay on RS4-11, 5.07 in the assay with HEK-293T and < 4.70 in the assay on HeLa. Besides, the outcome (in assay [3]; in assay [2]; at Bcl-2-like protein 1) was inactive.
As to `COc1ccc(NC(=O)NCCNS(=O)(=O)c2sccc2-c2ccc(C)cc2Oc2ccc(O)c(O)c2)cc1`, the pIC50 with HL-60 was 5.21; in the assay on RS4-11, 5.09; in the assay with HEK-293T, < 4.70; in the assay on HeLa, < 4.70. Moreover, the outcome (in assay [3]; in assay [2]; on Bcl-2-like protein 1) was inactive.
On to `Cc1ccc(-c2ccsc2S(=O)(=O)NCCNC(=O)Nc2cccc([N+](=O)[O-])c2)c(Oc2ccc(O)c(O)c2)c1`, for which, in assay [1], the pKi is 4.89. In addition, the negative logarithm of the IC50 (pIC50) was 5.22 in the assay on HL-60, 5.04 with RS4-11, 5.17 in the assay on HEK-293T and < 4.70 in the assay with HeLa. Also, the outcome (in assay [2]; at Bcl-2-like protein 1) was inactive.
